Series [1] deals with Streptococcus mutans. Put plainly: Antiadherence activity in FITC-labelled Streptococcus mutans ATCC 25175 assessed as reduction in bacterial adhesion to hydroxylapatite up to 96 ug/mL after 1 hr fluorescence assay. It is filed as functional, organism-based.
Series [2] relates to Streptococcus mutans. In words: Antibiofilm activity against Streptococcus mutans ATCC 25175 assessed as inhibition of biofilm formation up to 96 ug/mL after 24 hrs by crystal violet staining-based assay. The format is functional, organism-based.
Series [3] deals with Streptococcus mutans. In words: Bactericidal activity against Streptococcus mutans ATCC 25175. It is filed as organism-based.
The subject of series [4] is Pseudomonas aeruginosa. Put plainly: Growth inhibition of Pseudomonas aeruginosa ATCC 10145 incubated for 24 hrs under aerobic condition by microdilution method. It is filed as organism-based.
The test system of series [5] is Candida albicans. Put plainly: Growth inhibition of Candida albicans ATCC 28366 up to 96 ug/ml measured after 24 hrs by microdilution method. The conditions noted are these: in vitro. The format is organism-based.
In series [6] the test system is Streptococcus mutans. Put plainly: Inhibition of planktonic growth of Streptococcus mutans ATCC 25175 up to 96 ug/mL after 24 hrs relative to control. It is filed as organism-based.
For series [7], the system named is Limosilactobacillus fermentum. Put plainly: Antibiofilm activity against Lactobacillus fermentum LacB1 assessed as inhibition of biofilm formation up to 96 ug/mL after 24 hrs by crystal violet staining based assay. The format is functional, organism-based.
Another series relates to Actinomyces naeslundii. Put plainly: Antibiofilm activity against Actinomyces naeslundii ATCC 49340 assessed as reduction in biofilm formation up to 96 ug/mL after 24 hrs by crystal violet staining-based assay. The format is functional, organism-based.
For series [8], the system named is Streptococcus mutans. In words: Growth inhibition of Streptococcus mutans ATCC 25175 incubated for 24 hrs under aerobic condition by microdilution method. It is filed as organism-based.
Series [9] has as its system Escherichia coli. In words: Growth inhibition of Escherichia coli ATCC 15939 incubated for 24 hrs under aerobic condition by microdilution method. It is filed as organism-based.
The subject of series [10] is Candida albicans. In words: Antiadherence activity against FITC-labelled Candida albicans ATCC 28366 assessed as reduction in bacterial adhesion to hydroxylapatite up to 96 ug/mL after 1 hr by fluorescence assay relative to control. The format is functional. Further details: scale not given: the % may be the effect or the level left.
For another series, the system named is Porphyromonas gingivalis. Put plainly: Antibiofilm activity against Porphyromonas gingivalis ATCC 33277 assessed as inhibition of biofilm formation up to 96 ug/mL after 24 hrs by crystal violet staining based assay. The format is functional, organism-based.
The test system of the next series is Fusobacterium nucleatum. Put plainly: Antibiofilm activity against Fusobacterium nucleatum ATCC 25586 assessed as inhibition of biofilm formation up to 96 ug/mL after 24 hrs by crystal violet staining based assay. It is filed as functional, organism-based.
In series [11] the test system is Candida albicans. In words: Antibiofilm activity against Candida albicans ATCC 28366 assessed as reduction of biofilm formation up to 96 ug/mL after 24 hrs by crystal violet staining based assay. It is filed as functional, organism-based.
Series [12] has as its target Mu-type opioid receptor (Rattus norvegicus) (UniProt P33535). Put plainly: Displacement of [3H]DAMGO from mu-opioid receptor in Long-Evans rat brain after 1 hr by liquid scintillation counting method. The format is tissue-based. Background: In a radioligand displacement assay an active substance lowers the binding of a labelled ligand.
The subject of a further series is Listeria monocytogenes. Put plainly: Growth inhibition of Listeria monocytogenes WSLC 1001 incubated for 24 hrs under aerobic condition by microdilution method. The format is organism-based. Conditions: in vitro. On the technique in general: Broth dilution looks for growth in wells or tubes with falling amounts of substance.
Series [13] relates to Staphylococcus aureus. Put plainly: Growth inhibition of Staphylococcus aureus ATCC 6538 incubated for 24 hrs under aerobic condition by microdilution method. It is filed as organism-based. The conditions noted are these: in vitro.
The next series concerns A549. In words: Growth inhibition of human A549 cells. The format is functional, cell-based.
In the next series the test system is Fibroblast. Put plainly: Cytotoxicity against human fibroblasts. It is filed as cell-based.
The subject of series [14] is Streptococcus mutans. In words: Inhibition of planktonic growth of Streptococcus mutans ATCC 25175 at 96 ug/mL measured after 24 hrs relative to control. It is filed as organism-based.
In series [15] the test system is Streptococcus mutans. Put plainly: Antiadherence activity in FITC-labelled Streptococcus mutans ATCC 25175 assessed as reduction of bacterial adhesion to hydroxylapatite at 96 ug/mL after 1 hr by fluorescence assay. It is filed as functional. Also on record: scale not given: the % may be the effect or the level left.
In series [16] the test system is Streptococcus mutans. Put plainly: Antiadherence activity in FITC-labelled Streptococcus mutans ATCC 25175 assessed as reduction in bacterial adhesion to hydroxylapatite at 3 ug/mL after 1 hr fluorescence assay. It is filed as functional, organism-based.
Series [17] has as its system Candida albicans. In words: Antiadherence activity in FITC-labelled Candida albicans ATCC 28366 assessed as reduction of bacterial adhesion to hydroxylapatite at 96 ug/mL after 1 hr by fluorescence assay relative to control. It is filed as functional. Also on record: scale not given: the % may be the effect or the level left.
Series [18] can be described thus: Solubility of the compound in water. The format is physicochemical. Conditions: buffer.
For series [19], the system named is Candida albicans. Put plainly: Antiadherence activity against FITC-labelled Candida albicans ATCC 28366 assessed as reduction in bacterial adhesion to hydroxylapatite at 3 ug/mL after 1 hr by fluorescence assay. The format is functional, organism-based.
The subject of series [20] is Escherichia coli. In words: Antibacterial activity against Escherichia coli MTCC 2622 measured after 24 hrs by broth dilution method. The format is functional. The conditions noted are these: MTCC 2622, 24 h.
Series [21] has as its system Pseudomonas aeruginosa. Put plainly: Antibacterial activity against Pseudomonas aeruginosa MTCC 2642 measured after 24 hrs by broth dilution method. It is filed as functional. The conditions noted are these: MTCC 2642, 24 h.
Series [22] concerns Staphylococcus aureus. In words: Antibacterial activity against Staphylococcus aureus MTCC 902 measured after 24 hrs by broth dilution method. The format is functional. The conditions noted are these: MTCC 902, 24 h.
Series [23] relates to Streptococcus mutans. Put plainly: Inhibition of planktonic growth of Streptococcus mutans ATCC 25175 at MIC> 192 ug/mL after 24 hrs relative to control. The format is organism-based.
Another series relates to Enterococcus faecalis. In words: Antimicrobial activity against vancomycin-resistant Enterococcus faecalis measured after 24 hrs by agar-dilution method. It is filed as functional.

Values after ≈ are worked out from the molar mass of the structure shown. Active and inactive are the calls of the source. Unless noted, no cut-off for these calls is given here.

Chain of Mu-type opioid receptor (Rattus norvegicus) (P33535 whole entry): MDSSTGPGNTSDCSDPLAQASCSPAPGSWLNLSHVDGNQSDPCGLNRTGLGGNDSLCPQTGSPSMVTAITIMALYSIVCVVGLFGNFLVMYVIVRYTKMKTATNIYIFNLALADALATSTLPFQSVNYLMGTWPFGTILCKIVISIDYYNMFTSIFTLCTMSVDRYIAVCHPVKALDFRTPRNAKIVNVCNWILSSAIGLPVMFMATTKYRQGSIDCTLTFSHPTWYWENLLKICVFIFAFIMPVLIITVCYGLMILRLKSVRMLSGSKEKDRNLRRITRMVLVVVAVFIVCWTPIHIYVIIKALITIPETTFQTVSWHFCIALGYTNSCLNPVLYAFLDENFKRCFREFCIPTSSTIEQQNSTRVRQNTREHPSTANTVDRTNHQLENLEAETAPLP

In the case of `O=C1N[C@@H](Cc2ccc(O)cc2)C(=O)N[C@H]1Cc1ccc(O)cc1`, the outcome in the series on Streptococcus mutans [1] and in the series on Actinomyces naeslundii was inactive. For the same molecule, the inhibition entry (in the series on Streptococcus mutans [2]; in series [7]; with Porphyromonas gingivalis; with Fusobacterium nucleatum) was “inactive” in each case. The same molecule registered an MBC with Streptococcus mutans [3] of more than 192 µg/mL. In addition, the MIC was more than 192 µg/mL against Pseudomonas aeruginosa [4]; 96 µg/mL (≈ 294 µM) with Streptococcus mutans [8]; more than 192 µg/mL in the series with Escherichia coli [9]; more than 192 µg/mL against Listeria monocytogenes; more than 192 µg/mL in the series on Staphylococcus aureus [13]. Also, the “growth inhibition (GI)” value with Candida albicans [5] is “Non-Toxic”; in the series with Streptococcus mutans [6], “Toxic”. The Activity in the series with Candida albicans [10] came out at 20%. Besides, the outcome (in the series with Candida albicans [11]; in [12]) was Active.

The term IC50 denotes the midpoint of a concentration-inhibition curve. Consider `O=C1N[C@@H](Cc2ccc(O)cc2)C(=O)N[C@H]1Cc1ccccc1`, for which the inhibition result (in the series with Streptococcus mutans [2]; in series [7]; in the series with Porphyromonas gingivalis; with Fusobacterium nucleatum) was “inactive” in each case. For the same molecule, the MIC against Pseudomonas aeruginosa [4], in the series with Escherichia coli [9], in the series on Listeria monocytogenes and in the series with Staphylococcus aureus [13] was more than 192 µg/mL in each case. In addition, the entries for the “growth inhibition (GI)” value in the series on Candida albicans [5] and in the series with Streptococcus mutans [6] were “Non-Toxic” and “Toxic”, respectively. Further, the IC50 with A549 was 10 µM. The outcome with Actinomyces naeslundii and with Candida albicans [10] was inactive. Moreover, the result (in the series on Candida albicans [11]; in series [12]) was Active. Moreover, the Activity entry in the series with Fibroblast was “Non-Toxic”. In the series with Streptococcus mutans [14], the “inhibition (INH)” value was 20%.

On to `O=C1N[C@H](Cc2ccc(OCc3ccccc3)cc2)C(=O)N[C@H]1Cc1ccc(OCc2ccccc2)cc1`, for which the inhibition result (with Streptococcus mutans [2]; in [7]; in the series on Porphyromonas gingivalis; with Fusobacterium nucleatum) was “inactive” throughout. Moreover, the MIC in the series with Pseudomonas aeruginosa [4], in the series with Escherichia coli [9], in the series with Listeria monocytogenes and against Staphylococcus aureus [13] was more than 192 µg/mL in each case. In addition, the values for the Activity with Streptococcus mutans [15] and in the series with Candida albicans [17] were 82% and 53%, respectively. For the same molecule, in the series on Streptococcus mutans [6], the “growth inhibition (GI)” value is given as “Non-Toxic”. The result in the series with Streptococcus mutans [16] and in the series on Candida albicans [19] was inactive. Besides, the solubility entry in series [18] is reported as “Insoluble”.

Regarding `O=C1N[C@H](Cc2ccc(O)cc2)C(=O)N[C@@H]1Cc1ccccc1`, the inhibition entry (in the series with Streptococcus mutans [2]; in [7]; in the series with Porphyromonas gingivalis; in the series on Fusobacterium nucleatum) was “inactive” in each case. For the same molecule, the MIC against Escherichia coli [20] was 64 µg/mL (≈ 206 µM); with Pseudomonas aeruginosa [4], more than 192 µg/mL; against Pseudomonas aeruginosa [21] it was 32 µg/mL (≈ 103 µM); against Escherichia coli [9], more than 192 µg/mL; with Staphylococcus aureus [22], 16 µg/mL (≈ 51.6 µM); in the series on Listeria monocytogenes it was more than 192 µg/mL. For the same molecule, in the series with Staphylococcus aureus [13], the MIC was more than 192 µg/mL. The results for the “growth inhibition (GI)” value with Candida albicans [5] and in the series with Streptococcus mutans [6] were “Non-Toxic” and “Toxic”, respectively. The result with Actinomyces naeslundii and in the series on Candida albicans [10] was inactive. Further, the “inhibition (INH)” value with Streptococcus mutans [23] is 20%. Besides, in the series on Candida albicans [11], the result was Active. Moreover, in the series with Fibroblast, the Activity result was “Non-Toxic”.

`CC(C)C[C@@H]1NC(=O)[C@@H]2CCCN2C1=O`: the inhibition entry with Streptococcus mutans [2], with Porphyromonas gingivalis and in the series with Fusobacterium nucleatum was “inactive” in each case. The “growth inhibition (GI)” value in the series with Streptococcus mutans [6] is on record as “Non-Toxic”. Further, the MIC against Enterococcus faecalis was determined as 12.5 µg/mL (≈ 59.4 µM).

The values are drawn from ChEMBL document CHEMBL4340502, “Anti-biofilm and anti-adherence properties of novel cyclic dipeptides against oral pathogens” (Bioorg Med Chem, 2019).
